Measured values published in the SangsterLogP compilation.

Assay: method code SF-AS, from PMID: 1438511

`c1ccc(OCc2cccc(CN3CCCCCC3)c2)cc1` gave a logP of 2.87.
Compound `c1ccc(OCc2cccc(CN3CCCOC3)c2)cc1` has a logD (pH 8.0) of 2.75.
